Article PMC3381009 (Journal of Medicinal Chemistry, 2012)
pIC50: −log10 of the molar value.

What was measured:
[1] = target: Mycobacterium tuberculosis glutamine synthetase (MtGS) (Mycobacterium tuberculosis, UniProt P9WN39); experiment: MtGS inhibition screening and IC50 determination; assay type: biochemical; settings: for inhibitory activity in the MtGS enzymatic assay (in words): inhibition screening at 25 μM; for fold increase of affinity/potency (IC50) compared to 7a: MtGS IC50 ratio vs 7a
Mycobacterium tuberculosis glutamine synthetase (MtGS), sequence (P9WN39 whole entry): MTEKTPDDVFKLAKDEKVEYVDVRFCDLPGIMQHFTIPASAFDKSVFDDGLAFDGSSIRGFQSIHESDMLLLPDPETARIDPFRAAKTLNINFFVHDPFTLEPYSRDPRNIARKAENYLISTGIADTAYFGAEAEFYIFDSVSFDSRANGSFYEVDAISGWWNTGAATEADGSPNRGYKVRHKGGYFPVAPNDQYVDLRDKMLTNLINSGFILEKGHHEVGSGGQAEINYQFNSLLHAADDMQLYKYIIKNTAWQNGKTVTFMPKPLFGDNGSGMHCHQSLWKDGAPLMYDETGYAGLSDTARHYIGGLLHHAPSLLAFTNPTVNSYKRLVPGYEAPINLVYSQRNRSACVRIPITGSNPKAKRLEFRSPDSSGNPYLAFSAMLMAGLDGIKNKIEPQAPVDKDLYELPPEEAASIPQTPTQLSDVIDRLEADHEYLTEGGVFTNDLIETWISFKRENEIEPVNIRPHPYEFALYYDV

MtGS = settings: read-out: IC50 obtained in the HTS study; HTS assay conditions; cited from earlier work

SMILES | inhibitory activity in the MtGS enzymatic assay (in words) [1] | further results
COc1ccc2cc(-c3nc[nH]c3-c3ccncc3)ccc2c1 [Compound 7g] | inactive | 
COc1ccc2cc(-c3nc(C(C)(C)C)[nH]c3-c3ccncc3)ccc2c1 [Compound 7a] |  | fold higher IC50 than the IC50 obtained in the HTS study [1]: 30 fold; pIC50 (MtGS): 7.00
COc1ccc2cc(-c3nc(CO)[nH]c3-c3ccncc3)ccc2c1 [Compound 7i] | inactive | 
COc1ccc2cc(-c3nc(C(C)(C)C)[nH]c3-c3ccnc(N)c3)ccc2c1 [Compound 11a, 4-(2-tert-Butyl-4-(6-methoxynaphthalen-2-yl)-1H-imidazol-5-yl)pyridin-2-amine] |  | fold increase of affinity/potency (IC50) compared to 7a [1]: over 60 fold
COc1ccc2cc(-c3nc(C(C)(C)C)[nH]c3-c3ccnc(N(C)C)c3)ccc2c1 [Compound 11c] | inactive | 
CNc1cc(-c2[nH]c(C(C)(C)C)nc2-c2ccc3cc(OC)ccc3c2)ccn1 [Compound 11b] |  | fold loss in activity compared to 11a [1]: 100 fold
COc1ccc2cc(-c3nc(C(C)(C)C)[nH]c3-c3ccnc(F)c3)ccc2c1 [Compound 10] |  | fold increase of affinity/potency (IC50) compared to 7a [1]: ~2.5 fold
COc1ccc2cc(-c3nc(COCc4ccccc4)[nH]c3-c3ccncc3)ccc2c1 [Compound 7h] | did not show any inhibitory activity | 
COc1ccc2cc(-c3nc(C)[nH]c3-c3ccncc3)ccc2c1 [Compound 7f] | inactive | 
